Test results from patent US20130030007A1, “Obesity Small Molecules” (AKRON MOLECULES GMBH, priority 2010, published 2013).
Non-standard residues stand in square brackets, D forms with d. Residues, ends and D or L forms follow the SMILES beside them. No end group written: not given here. pGlu = O=C1CC[C@@H](C(=O)O)N1; Thz = O=C(O)[C@@H]1CSCN1

Tested on: human ortholog of Drosophila obesity gene
Assay: Table 1: type of interaction of small molecule with therapeutic target gene
Parameters: key: O: Obesity - obesity pathway interaction; B: validated binding partner
Conditions: not given

Compound | Type: Type of interaction
COc1ccc(-c2cc(=O)c3c(OC)c(OC)c(OC)c(OC)c3o2)cc1 [Tangeretin] | B
O=C(O[C@@H]1Cc2c(O)cc(O)cc2O[C@@H]1c1ccc(O)c(O)c1)c1cc(O)c(O)c(O)c1 [epicatechin gallate] | B
O=C1C[C@@H](c2ccc(O[C@@H]3O[C@H](CO)[C@@H](O)[C@H](O)[C@H]3O)cc2)Oc2cc(O)ccc21 [liquiritin] | O
O=c1c2ccccc2nc2n1CCc1c-2[nH]c2ccccc12 [rutecarpine] | B
O=C(/C=C/c1ccccc1)NC(NC(=S)Nc1cccc2cccnc12)C(Cl)(Cl)Cl (stereo not drawn) [salubrinal] | B

Tested on: human ortholog of Drosophila obesity gene
Assay: not given
Parameters: key: O: Obesity - obesity pathway interaction; B: validated binding partner
Conditions: cited from earlier work

Compound | Type: Type of interaction
O=C1OC(=O)[C@H]2[C@@H]1[C@@H]1CC[C@H]2O1 [norcantharidin] | B
O=C1NC(=O)C2C3C=CC(C3)C12 (stereo not drawn) [noreximide] | O
Oc1ccc(CC2NCCc3cc(O)c(O)cc32)cc1O (stereo not drawn) [norlaudanosoline] | B
C[C@@H]1Cc2c(Cl)cc(C(=O)N[C@@H](Cc3ccccc3)C(=O)O)c(O)c2C(=O)O1 [ochratoxin A] | O
O=C(O[C@H]1[C@@H]2OC(=O)c3cc(O)c(O)c(O)c3-c3c4cc(c(O)c3O)Oc3c(cc(O)c(O)c3O)C(=O)O[C@H]3C(O)O[C@@H]5COC(=O)c6cc(O)c(O)c(O)c6-c6c(cc(c(O)c6O)Oc6c(cc(O)c(O)c6O)C(=O)O[C@H]1C(O)O[C@@H]2COC4=O)C(=O)O[C@H]5[C@@H]3OC(=O)c1cc(O)c(O)c(O)c1)c1cc(O)c(O)c(O)c1 (stereo partly drawn) [oenothein B] | B
CO[C@H]1C[C@H](O[C@H]2CC[C@@]3(C)[C@H](CC[C@@H]4[C@@H]3CC[C@]3(C)[C@@H](C5=CC(=O)OC5)[C@@H](OC(C)=O)C[C@]43O)C2)O[C@@H](C)[C@@H]1O [oleandrin] | B
CCCCCCCC/C=C\CCCCCCCC(N)=O [oleylamide] | B
COc1ccc(-c2coc3cc(O)cc(O)c3c2=O)cc1 [olmelin] | B
CNC(=N)NCCC[C@H](N)C(=O)O [omega-N-Methylarginine] | O
O=C(O)C(=O)O.[NH-][C@@H]1CCCC[C@H]1[NH-].[Pt+2] [oxaliplatin] | O
CCCCC[C@H](O)/C=C/[C@H]1C=CC(=O)[C@@H]1CCCCCCC(=O)O [prostaglandin A1] | O
CCCCC[C@H](O)/C=C/[C@H]1C(=O)C[C@H](O)[C@@H]1C/C=C\CCCC(=O)O [prostaglandin D2] | B
CCCCC[C@H](O)/C=C/[C@H]1[C@H](O)CC(=O)[C@@H]1CCCCCCC(=O)O [prostaglandin E1] | O
CCCCC[C@H](O)/C=C/[C@@H]1[C@@H](C/C=C\CCCC(=O)O)[C@@H](O)C[C@H]1O [prostaglandin F2alpha] | O
CCCCC[C@H](O)/C=C/[C@@H]1[C@@H](C/C=C\CCCC(=O)O)[C@@H]2C[C@H]1OO2 [prostaglandin H2] | O
COC(=O)C1=CC[C@@]23CC[C@@H]([C@@](C)(/C=C/C=C(\C)C(=O)O)OC2=O)[C@@]3(OC(C)=O)CC1 [pseudolaric acid B] | O
C[C@H](N[C@@H](CCc1ccccc1)C(=O)O)C(=O)N1[C@H](C(=O)O)C[C@@H]2CCC[C@@H]21 [ramiprilat] | B
LY 303511 | O
mahanine | B
maraviroc | B
melitten | O
milbemycin | O
neodymium | O
obovatol | B
pegvisomant | O
pentosidine | B
pheophorbide a | O
pifithrin | B
pindobind | O
prostaglandin J2 | O

Same assay, conditions: interaction of the small molecule with the human ortholog(s) / Drosophila gene(s) listed in the same table line; cited from earlier work

Compound | Type: Type of interaction
CNc1cc(OC)c(C(=O)NC2CCN(Cc3ccccc3)C2C)cc1Cl (stereo not drawn) [nemonapride] | O
O=C1NC(=O)C(Cc2ccc3cc(OCc4ccccc4F)ccc3c2)S1 (stereo not drawn) [netoglitazone] | B
CC(CNC(=O)c1cccnc1)NC(=O)c1cccnc1 (stereo not drawn) [nicaraven] | O
NCCC(Oc1ccc(C(F)(F)F)cc1)c1ccccc1 (stereo not drawn) [norfluoxetine] | B
COc1ccc(CCNCCCC(C#N)(c2ccc(OC)c(OC)c2)C(C)C)cc1OC (stereo not drawn) [norverapamil] | O
CO[C@@H]1[C@@H](OC(N)=O)[C@@H](O)[C@H](Oc2ccc3c(O)c(NC(=O)c4ccc(O)c(CC=C(C)C)c4)c(=O)oc3c2C)OC1(C)C [novobiocin] | O
O=C(N[C@H]1CCS[C@H]2CCC[C@@H](C(=O)O)N2C1=O)[C@@H](S)Cc1ccccc1 [omapatrilat] | O
COc1ccc2nc(S(=O)(=O)Cc3ncc(C)c(OC)c3C)[nH]c2c1 [omeprazole sulfone] | B
CO[C@@H]1C(=O)CC[C@]2(CO2)[C@@]1(O)[C@@]1(C)O[C@@H]1CC=C(C)C [ovalicin] | B
O=c1[nH]c2ccccc2n1CCCN1CCN(C(c2ccccc2)c2ccccc2)CC1 [oxatomide] | B
NC(=O)N1c2ccccc2CC(=O)c2ccccc21 [oxcarbazepine] | O
O=C1CCC[C@@H]2[C@H]3CCC[N+]4([O-])CCC[C@@H](CN12)[C@@H]34 (stereo partly drawn) [oxymatrine] | B
Nc1ccc(C(=O)NCC(=O)O)cc1 [p-Aminohippuric Acid] | B
NCCC(O)(P(=O)(O)O)P(=O)(O)O [pamidronate] | B
CC1(C)CCC[C@](C)([C@H]2CC[C@]3(C)[C@@H]2[C@H](O)C[C@@H]2[C@@]4(C)CC[C@H](O)C(C)(C)[C@@H]4CC[C@]23C)O1 [panaxadiol] | B
c1ccc2c(c1)ccc1ccccc12 [phenanthrene] | O
COc1cc([C@@H]2c3cc4c(cc3[C@H](O)[C@H]3COC(=O)[C@@H]23)OCO4)cc(OC)c1OC [picropodophyllin] | B
O=C1CC[C@@H](C(=O)N2CSC[C@H]2C(=O)O)N1 [pidotimod] ([pGlu]-[Thz]-OH) | O
CC1=CC(=O)c2c(O)cccc2C1=O [plumbagin] | B
CC[C@@H]([C@H](C)O)n1ncn(-c2ccc(N3CCN(c4ccc(OC[C@@H]5CO[C@@](Cn6cncn6)(c6ccc(F)cc6F)C5)cc4)CC3)cc2)c1=O [posaconazole] | B
CC(=O)O[C@@]12C[C@@H](C)[C@@]3(O)[C@@H](C=C(CO)C[C@]4(O)C(=O)C(C)=C[C@@H]34)[C@@H]1C2(C)C [prostratin] | O
COCCCN1CCC(NC(=O)c2cc(Cl)c(N)c3c2OCC3)CC1 [prucalopride] | O
O=c1c(-c2ccc(O)cc2)coc2c([C@@H]3O[C@H](CO)[C@@H](O)[C@H](O)[C@H]3O)c(O)ccc12 [puerarin] | B
OCCOCCN1CCN(C2=Nc3ccccc3Sc3ccccc32)CC1 [quetiapine] | O
COC1=C(CC(C)OC(=O)c2cc(Cl)c(O)cc2O)C(=O)C(NC=O)=CC1=O (stereo not drawn) [radester] | O
Pyrethrins | O
neuromedin C (GNHWAVGHLM; ends and bridges not checked; UniProt P07492 41-50, looked up) | O
omalizumab | B

Tested on: not given
Assay: not given
Conditions: human, in vivo, po; cited from earlier work

Compound | acute toxic effects
CCC(=O)O[C@]1(C(=O)SCF)[C@H](C)C[C@H]2[C@@H]3C[C@H](F)C4=CC(=O)C=C[C@]4(C)[C@@]3(F)[C@@H](O)C[C@@]21C [fluticasone propionate] | no acute toxic effects reported

Same assay, conditions: intranasal 2 mg twice daily for 7 days, healthy human volunteers; cited from earlier work

Compound | tolerability
CCC(=O)O[C@]1(C(=O)SCF)[C@H](C)C[C@H]2[C@@H]3C[C@H](F)C4=CC(=O)C=C[C@]4(C)[C@@]3(F)[C@@H](O)C[C@@]21C [fluticasone propionate] | well tolerated

Same assay, conditions: repeat oral doses up to 80 mg daily for 10 days in volunteers, up to 10 mg daily for 14 days in patients; cited from earlier work

Compound | tolerability
CCC(=O)O[C@]1(C(=O)SCF)[C@H](C)C[C@H]2[C@@H]3C[C@H](F)C4=CC(=O)C=C[C@]4(C)[C@@]3(F)[C@@H](O)C[C@@]21C [fluticasone propionate] | well tolerated
